The source of these data is patent publication US9920022B2, “Small molecule compound and synthesizing method and uses thereof” (TECHNODERMA MEDICINES PTE LTD., priority 2014, dated 2018).

The target in one data set is T1, Thyroid Receptor TRβ (Homo sapiens, UniProt P10828).
T1 construct: expressed in transfected cells; host or cells: HEK-293
T1 sequence (P10828 1-461): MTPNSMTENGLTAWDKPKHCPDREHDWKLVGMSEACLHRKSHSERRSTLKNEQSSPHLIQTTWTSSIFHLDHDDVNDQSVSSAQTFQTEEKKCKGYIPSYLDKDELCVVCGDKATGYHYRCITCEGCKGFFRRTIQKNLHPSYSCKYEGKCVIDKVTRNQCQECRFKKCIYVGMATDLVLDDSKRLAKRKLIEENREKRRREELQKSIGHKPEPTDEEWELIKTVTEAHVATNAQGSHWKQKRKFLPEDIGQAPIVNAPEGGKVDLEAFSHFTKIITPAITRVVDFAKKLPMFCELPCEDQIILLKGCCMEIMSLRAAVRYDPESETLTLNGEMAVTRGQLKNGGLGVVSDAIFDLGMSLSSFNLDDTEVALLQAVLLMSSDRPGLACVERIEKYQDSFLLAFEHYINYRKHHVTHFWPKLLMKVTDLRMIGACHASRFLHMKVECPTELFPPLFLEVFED
The experiment in a line: Thyroid Receptor TRβ Agonist Assay (luciferase reporter gene, co-transfected HEK-293 cells). Format: cell-based. Conditions: TRβ plasmid + thyroid hormone response element luciferase reporter in HEK-293 cells; 24 hours; maximum concentration 10 μM. As for the experimental part: B: Thyroid Receptor TRβ Agonist Assay
(2) The residual poly-D-lysine is removed. On the 96-well plate, HEK-293 cells are plated at a density of 4.0×10^4 cells/well in DMEM medium containing 10% FBS. The cells are cultured at 37° C. overnight.
(1) The culture medium is removed 2 hours before transfection. 100 μl of DMEM culture medium containing 10% FBS treated by activated carbon is added to each well, and incubated at 37° C. for 2 hours.
3. For each reaction system, 50 ng thyroid receptor (TRβ) plasmid DNA and 50 ng luciferase reporter gene plasmid DNA of thyroid hormone response element are added. Mixing it completely by gentle pipeting.
4. 0.2 μl of transfection reagent X-tremeGENE HP is added to the diluted co-transfected DNA mixture. Mixing it completely by gentle pipeting.
(3) 10 μl of the complex is added to each well in a 96 well plate. Gently shaking the culturing plate to evenly distribute the complex.
(4) The culture is incubated at 37° C. for 24 hours.
(1) Preparation of compound diluent: for each compound, half-log dilutions of each test compound is prepared using DMEM medium containing 10% charcoal stripped FBS (containing 0.1% DMSO), with a maximum concentration of 10 μM of the test compound.
(2) Removing the culture medium and adding the formulated compound diluent (the final DMSO concentration is 0.1%).
(3) For blank control, DMEM medium containing 10% charcoal stripped FBS (containing 0.1% DMSO) is added.
(4) Incubating at 37° C. for 24 hours.
(1) Removing the culture medium, adding 40 μl phosphate (PBS) buffer to each well.
(2) Adding 40 μl Bright-Glo reagent to each well and vortexing for 30 seconds, followed by incubation in dark for 2 min.
(3) Transferring 70 μl cell lysate from each well into a white polystyrene 96-well plate.
(4) Detecting the Luciferase signal intensity by Envision.
On the technique in general: A reporter such as luciferase makes a cellular process visible.

The next data set deals with C3H mice. Kind of data set: Mouse experiment: hair growth after topical administration. The format is in vivo. Conditions: for day of topical administration on which the skin became black / day on which hair growth was observed: 20 μl/mouse topical twice/day. How it is done: A. Mouse Experiment: TMI-105795 is Used as Test Compound in the Experiment
The tested compound (TMI-105795) is sub-packaged into dose volume and kept at −20° C. before use. All tested compounds (including solvents) are labeled as TDM-001-1, TDM-001-2, TDM-001-3 and TDM-001-4.
Female C3H mice (35-39 days after birth at arrival) were obtained from Beijing Vital River Laboratory Animal Technology Co., Ltd. The mice were selected for inclusion based upon acceptable clinical condition and body weight. Animals were housed randomly 5 mice per cage before grouping. All mice were kept at least one week in acclimation in the animal facility prior to any procedures. Animal identification number was labeled on the tail and cage tag respectively.
The test compound is TMI-105795 (solvent is polyethylene glycol/ethanol (30/70)), it is sub-packaged into dose volume and kept in −20° C. before use. It was topically administered together with solvent twice every day at 9:30 am and 4:00 pm.
Hair growth grade, peripheral hair growth, scaling, erythema will be scored on Monday, Wednesday and Friday from the beginning on the Day 1 to the termination of the experiment.
All experimental mice were carefully dipped with the hair on the back of the rear leg with shaver. Care must be taken to avoid any irritation to the skin on the back of mouse. Skin color on the back was confirmed again. All mice must show pink skin, any mice that show signs of skin abrasion were excluded from the experiment. Mice were randomly divided into 5 groups and housed individually.
Body weight of each mouse is recorded before administration every morning. 20 μl corresponding solution is aspirated by pipette and applied to shaving area on the back of the mouse, and then the drug solution is uniformly applied to the back between rear legs with tips, about a region with a diameter of 1 cm. It is ensured that the administered region is the same one every day, and the mouse is put into the case after drying of liquid.
All mice are scored on Monday Wednesday and Friday each week from the beginning on the Day 1 to the termination of the study, using the following scoring guidelines:
a. Hair Growth Grade (Administration Area):
0=No color change, or hair growth on the skin
1=Skin color changes uniformly over the administration area from pink to gray/black with no visible hair growth;
2=Appearance of short and sparse hair growth;
3=Full thick hair growth similar to the surrounding normal hair coat.
b. Peripheral Hair Growth (Defined as Hair Growth that is in the Dipped Area, but not in the Administration Area):
0=No color change, or hair growth on the skin;
1=Skin color changes to gray/black with no visible hair growth;
2=Peripheral sparse hair growth;
3=Peripheral thick hair growth.

Setting [1] is: all treatment groups, 3 weeks topical administration.

As to `O=C(NO)C(=O)Nc1cc(Cl)c(Oc2ccc(O)c(Cc3ccc(F)cc3)c2)c(Cl)c1` [TMI-105795, N1-(3,5-dichloro-4-(3-(4-fluorobenzyl)-4-hydroxyphenoxy)phenyl)-N2-oxalyl hydroxylamine], the EC50 at Thyroid Receptor TRβ was found to be 179 nM. For the same compound, the “day of topical administration on which the skin became black” value worked out at 12 days in the data set with C3H mice (TDM-001-2 group, 0.005% (w/v)); 2 days with C3H mice (TDM-001-3 group, 0.01% (w/v)); 2 days with C3H mice (TDM-001-4 group, 0.05% (w/v)). The “day on which hair growth was observed” value in the data set with C3H mice (TDM-001-2 group, 0.005% (w/v)) stood at 16 days; in the data set on C3H mice (TDM-001-3 group, 0.01% (w/v)), 6 days; in the data set with C3H mice (TDM-001-4 group, 0.05% (w/v)) it was 8 days. In addition, the “body weight change during administration” value in the data set with C3H mice (all groups, 3 weeks topical administration) is “would not induce the loss of animal body weight”. Also, in the data set on C3H mice (setting [1]), the “erythema of the skin” value is recorded as “not observed”. Further, the “scaling of the skin” value with C3H mice (setting [1]) is listed as “not observed”. Besides, in the data set on C3H mice (female C3H mice, topical, twice/day, 5 days/week for 3 weeks, every dosing amount (0.005%, 0.01%, 0.05% w/v)), the “promoting hair growth compared with solvent group” value is listed as “positive result in promoting hair growth”. Also, in the data set on C3H mice (female C3H mice, topical, 0.005%, 0.01%, 0.05% (w/v)), the “dose dependence of hair growth effect” value is given as “dose dependent effect is observed”. On to `CS(=O)(=O)c1ccc(Cc2cc(Oc3c(Cl)cc(NC(=O)C(=O)NO)cc3Cl)ccc2O)cc1` [TMI-105902, N1-(3,5-dichloro-4-(3-(4-methylsulphonylbenzyl)-4-hydroxyphenoxy)phenyl)-N2-oxalyl hydroxylamine], for which the EC50 on Thyroid Receptor TRβ turned out to be 250 nM. On the same count and under the same terms, the value for `Cc1ccc(Cc2cc(Oc3c(Cl)cc(NC(=O)C(=O)NO)cc3Cl)ccc2O)cc1` [TMI-105903, N1-(3,5-dichloro-4-(3-(4-methylbenzyl)-4-hydroxyphenoxy)phenyl)-N2-oxalyl hydroxylamine] was 136 nM; that for `O=C(NO)C(=O)Nc1cc(Cl)c(Oc2ccc(O)c(Cc3ccc(Cl)c(Cl)c3)c2)c(Cl)c1` [TMI-105905, N1-(3,5-dichloro-4-(3-(3,4-dichlorobenzyl)-4-hydroxyphenoxy)phenyl)-N2-oxalyl hydroxylamine] was 400 nM.

Regarding `O=C(NO)C(=O)Nc1cc(Cl)c(Oc2ccc(O)c(CN3CCOCC3)c2)c(Cl)c1` [TMI-105906, N1-(3,5-dichloro-4-(4-hydroxy-3-(morpholinomethyl)phenoxy)phenyl)-N2-oxalyl hydroxylamine], the EC50 at Thyroid Receptor TRβ came to 925 nM. As for `O=C(NO)C(=O)Nc1cc(Cl)c(Oc2ccc(O)c(CN3CCC(O)CC3)c2)c(Cl)c1` [TMI-105956], the EC50 at Thyroid Receptor TRβ came to 6520 nM. On the same count and under the same terms, to `CN1CCN(Cc2cc(Oc3c(Cl)cc(NC(=O)C(=O)NO)cc3Cl)ccc2O)CC1` [TMI-105957, N1-(3,5-dichloro-4-(4-hydroxy-3-(4-methylpiperazine-1-methyl)phenoxy)phenyl)-N2-oxalyl hydroxylamine] belongs 8760 nM; to `O=C(NO)C(=O)Nc1cc(Cl)c(Oc2ccc(O)c(CN3CCCC3)c2)c(Cl)c1` [TMI-105958, N1-(3,5-dichloro-4-(4-hydroxy-3-(methylpyrrolidin-1-methyl)phenoxy)phenyl)-N2-oxalyl hydroxylamine], 9700 nM; to `O=C(NO)C(=O)Nc1cc(Cl)c(Oc2ccc(O)c(CN3CCC(Cc4ccccc4)CC3)c2)c(Cl)c1` [TMI-105959], 617 nM. Still for that read-out and setting: to `O=C(NO)C(=O)Nc1cc(Cl)c(Oc2ccc(O)c(CN3Cc4ccccc4C3)c2)c(Cl)c1` [TMI-105961, N1-(3,5-dichloro-4-(4-hydroxy-3-(isoindolin-2-methyl)phenoxy)phenyl)-N2-oxalyl hydroxylamine] belongs 9240 nM. For `O=C(NO)C(=O)Nc1cc(Cl)c(Oc2ccc(O)c(CN3CCc4ccccc4C3)c2)c(Cl)c1` [TMI-105962, N1-(3,5-dichloro-4-(3-(3,4-dihydroisoquinolin-2(1H)-methyl)-4-hydroxyphenoxy)phenyl)-N2-oxalyl hydroxylamine], at Thyroid Receptor TRβ, the EC50 was 3720 nM. Still for that read-out and setting: the value for `O=C1CN(Cc2cc(Oc3c(Cl)cc(NC(=O)C(=O)NO)cc3Cl)ccc2O)CCN1` [TMI-105963] was 9580 nM. In the case of `O=C(NO)C(=O)Nc1cc(Cl)c(Oc2ccc(O)c(Cc3cccc(F)c3)c2)c(Cl)c1` [TMI-105965], the EC50 on Thyroid Receptor TRβ is 96 nM. On to `O=C(NO)C(=O)Nc1cc(Cl)c(Oc2ccc(O)c(Cc3ccccc3F)c2)c(Cl)c1` [TMI-105966], for which the EC50 on Thyroid Receptor TRβ is 61.1 nM.

For orientation: EC50 means the concentration giving half of the maximal effect.
